Reference: the supplement of paper PMC13380429

Experiments:
Details in all cases: 72 h
Caco-2 [1] = assay: cell viability relative to DMSO; higher = less toxic
Calu-3 [2] = assay: as above
HepG2 [3] = assay: as above
U2OS [4] = assay: as above
Vero E6 [5] = assay: as above
Caco-2 [6] = assay: relative viability EC50 (midpoint between 100% and the lowest measured viability); higher = less toxic
Calu-3 [7] = assay: as above
U2OS [8] = assay: as above
Caco-2 [9] = assay: drug sensitivity score (DSS) for viability; higher = more toxic; extreme values may be limits of the assay
Calu-3 [10] = assay: as above
HepG2 [11] = assay: as above
U2OS [12] = assay: as above
Vero E6 [13] = assay: as above
Vero E6 [14] = assay: relative viability EC50 (midpoint between 100% and the lowest measured viability); higher = less toxic

Structure (SMILES) | cell viability (Caco-2 [1]; 1 nM) [%] | cell viability (Caco-2 [1]; 10 nM) [%] | cell viability (Caco-2 [1]; 100 nM) [%] | cell viability (Caco-2 [1]; 1000 nM) [%] | cell viability (Caco-2 [1]; 10000 nM) [%] | cell viability (Calu-3 [2]; 1 nM) [%] | cell viability (Calu-3 [2]; 10 nM) [%] | cell viability (Calu-3 [2]; 100 nM) [%] | cell viability (Calu-3 [2]; 1000 nM) [%] | cell viability (Calu-3 [2]; 10000 nM) [%] | cell viability (HepG2 [3]; 1 nM) [%] | cell viability (HepG2 [3]; 10 nM) [%] | cell viability (HepG2 [3]; 100 nM) [%] | cell viability (HepG2 [3]; 1000 nM) [%] | cell viability (HepG2 [3]; 10000 nM) [%] | cell viability (U2OS [4]; 1 nM) [%] | cell viability (U2OS [4]; 10 nM) [%] | cell viability (U2OS [4]; 100 nM) [%] | cell viability (U2OS [4]; 1000 nM) [%] | cell viability (U2OS [4]; 10000 nM) [%] | cell viability (Vero E6 [5]; 1 nM) [%] | cell viability (Vero E6 [5]; 10 nM) [%] | cell viability (Vero E6 [5]; 100 nM) [%] | cell viability (Vero E6 [5]; 1000 nM) [%] | cell viability (Vero E6 [5]; 10000 nM) [%] | relative viability EC50 (Caco-2 [6]) [µM] | relative viability EC50 (Calu-3 [7]) [µM] | relative viability EC50 (U2OS [8]) [µM] | drug sensitivity score (Caco-2 [9]) | drug sensitivity score (Calu-3 [10]) | drug sensitivity score (HepG2 [11]) | drug sensitivity score (U2OS [12]) | drug sensitivity score (Vero E6 [13]) | relative viability EC50 (Vero E6 [14]) [µM]
Nc1nc(-c2nn(Cc3ccccc3F)c3ncccc23)ncc1C1CC1 [BAY-41-2272] | 86.5 | 90.5 | 94.1 | 100 | 93.8 | 100 | 108 | 91.7 | 104 | 110 | 95.8 | 103 | 95.8 | 104 | 69.2 | 90 | 96.6 | 93.9 | 101 | 105 | 102 | 96.1 | 97.3 | 86 | 66.7 | > 10 | > 10 | > 10 | 0 | 0 | 1.1 | 0 | 2.9 | –
CCCC(C)C1(CC)C(=O)NC(=O)NC1=O (centres undefined) [pentobarbital] | 94.8 | 90.8 | 88.3 | 89.1 | 93.9 | 106 | 90.3 | 109 | 107 | 94.1 | – | – | – | – | – | 104 | 97.1 | 99.7 | 93.9 | 99.1 | 102 | 94.4 | 96.5 | 106 | 100 | > 10 | > 10 | > 10 | 0.8 | 0 | – | 0 | 0 | > 10
CN(C)/N=N/c1[nH]cnc1C(N)=O [dacarbazine] | 100 | 97.8 | 97 | 103 | 93.4 | 91.9 | 102 | 95.9 | 110 | 95.7 | 106 | 90.7 | 99.2 | 90.5 | 72.7 | 97.7 | 99.2 | 94.9 | 102 | 92.7 | 98.6 | 94.2 | 94.4 | 97.2 | 100 | > 10 | > 10 | > 10 | 0 | 0 | 2.3 | 0 | 0 | > 10
COc1ccc2c(c1)/C(=C/c1cnc[nH]1)C(=O)N2 [SU9516] | 101 | 96 | 95.3 | 105 | 96.8 | 99.9 | 109 | 112 | 122 | 134 | 105 | 105 | 97.7 | 90.8 | 59.3 | 101 | 103 | 101 | 106 | 83.7 | 97.4 | 99.4 | 95.3 | 104 | 79 | > 10 | > 10 | > 10 | 0 | 0 | 3.5 | 0.2 | 0.5 | > 10
CN/C(=N\CCSCc1nc[nH]c1C)NC#N [cimetidine] | 99.8 | 98.7 | 98.7 | 106 | 88.1 | 104 | 106 | 102 | 101 | 88.6 | – | – | – | – | – | 101 | 106 | 100 | 104 | 96.4 | 94.5 | 91.7 | 96.9 | 91.3 | 90 | > 10 | > 10 | > 10 | 0 | 0 | – | 0 | 0 | > 10
CS(=O)(=O)c1cccc(CNc2nc(Nc3ccc4c(c3)CCC(=O)N4)ncc2C(F)(F)F)c1 | 94.6 | 101 | 95.3 | 96.6 | 85.5 | 108 | 99.5 | 101 | 88.2 | 88.5 | 104 | 111 | 94.4 | 94.9 | 50.2 | 98.3 | 97.6 | 93.7 | 92.4 | 46 | 103 | 96.9 | 99.1 | 87 | 78.8 | > 10 | > 10 | 2.04 | 0.3 | 0.5 | 3.5 | 4.2 | 1.8 | > 10
O=C(Nc1cccnc1)c1cc(-c2ccnc(F)c2)ccc1OCc1ccccc1 | 107 | 110 | 94.8 | 92 | 86.6 | 94.2 | 102 | 96.5 | 102 | 104 | – | – | – | – | – | 95.6 | 100 | 95.1 | 96.3 | 97.3 | 99.3 | 101 | 97.8 | 98 | 95.2 | > 10 | > 10 | > 10 | 0.4 | 0 | – | 0 | 0 | > 10
COC(=O)[C@H](CC(C)C)NC(=O)[C@@H](N)CC(C)C [leucylleucine-methyl-ester] | 98.1 | 102 | 94.5 | 104 | 103 | 98.1 | 107 | 86.9 | 99.6 | 98.5 | – | – | – | – | – | – | – | – | – | – | – | – | – | – | – | > 10 | > 10 | – | 0 | 0 | – | – | – | –
Fc1cccc(/C=N/N=C/c2cccc(F)c2)c1 [DFB] | 99.5 | 110 | 100 | 102 | 101 | 115 | 111 | 98.8 | 105 | 104 | – | – | – | – | – | – | – | – | – | – | 99.9 | 98.7 | 90 | 97.3 | 98.6 | > 10 | > 10 | – | 0 | 0 | – | – | 0 | > 10
